Where a name gives a salt, the structure may show the parent alone.

One series has as its target T1, SIK2 recombinant protein (Homo sapiens, UniProt Q9H0K1).
T1 construct: purchased Invitrogen Corporation
Description: Radiometric protein kinase assay (33PanQinase Activity Assay) for inhibition of SIK2 kinase. The class given is biochemical. To be noted: for remaining activity at 0.1 µM / remaining activity at 1 µM: 1 h; for remaining activity at 0.1 µM: compound at 0.1 μM; for remaining activity at 1 µM: compound at 1 μM; for IC50: ATP 1.0 μM, SIK2 0.3 nM, substrate RBER-Chktide. As to the method: The inhibition of SIK2 kinase was assessed using SIK2 recombinant protein in an in vitro peptide-based kinase assay.
A radiometric protein kinase assay (^33PanQinase® Activity Assay) is used for measuring the kinase activity. All assays are performed in 96-well FlashPlates™ from Perkin Elmer in a 50 μl reaction volume. The reaction cocktail is […] in 4 steps in the following order: • 10 μl of non-radioactive ATP solution (in H2O) • 25 μl of assay buffer/[γ-^33P]-ATP mixture • 5 μl of test sample in 10% DMSO • 10 μl of enzyme/substrate mixture
The assay for SIK2 contains 70 mM HEPES-NaOH pH 7.5, 3 mM MgCl2, 3 mM MnCl2, 3 μM Na-orthovanadate, 1.2 mM DTT, 50 μg/ml PEG20000, ATP (1.0 μM), [γ-^33P]-ATP (approx. 5×10^05 cpm per well), protein kinase SIK2 (0.3 nM) and substrate (RBER-Chktide), 2.0 μg/50 μl).
The kinase is obtained from Invitrogen Corporation.
The reaction cocktails were incubated at 30° C. for 60 minutes. The reaction was stopped with 50 μl of 2% (v/v) H3PO4, plates were aspirated and washed two times with 200 μl 0.9% (w/v) NaCl. Incorporation of ^33Pi (counting of “cpm”) was determined with a microplate scintillation counter.
The compounds are dissolved to 10 mM in DMSO. Where needed, solutions are sonicated in a bath sonicator.
Table 4 provides the pIC50 values and % Remaining activity values at two concentrations (1 μM and 0.1 μM) of the compounds according to the invention, obtained using the above mentioned kinase assay.

T1 sequence (Q9H0K1 whole entry): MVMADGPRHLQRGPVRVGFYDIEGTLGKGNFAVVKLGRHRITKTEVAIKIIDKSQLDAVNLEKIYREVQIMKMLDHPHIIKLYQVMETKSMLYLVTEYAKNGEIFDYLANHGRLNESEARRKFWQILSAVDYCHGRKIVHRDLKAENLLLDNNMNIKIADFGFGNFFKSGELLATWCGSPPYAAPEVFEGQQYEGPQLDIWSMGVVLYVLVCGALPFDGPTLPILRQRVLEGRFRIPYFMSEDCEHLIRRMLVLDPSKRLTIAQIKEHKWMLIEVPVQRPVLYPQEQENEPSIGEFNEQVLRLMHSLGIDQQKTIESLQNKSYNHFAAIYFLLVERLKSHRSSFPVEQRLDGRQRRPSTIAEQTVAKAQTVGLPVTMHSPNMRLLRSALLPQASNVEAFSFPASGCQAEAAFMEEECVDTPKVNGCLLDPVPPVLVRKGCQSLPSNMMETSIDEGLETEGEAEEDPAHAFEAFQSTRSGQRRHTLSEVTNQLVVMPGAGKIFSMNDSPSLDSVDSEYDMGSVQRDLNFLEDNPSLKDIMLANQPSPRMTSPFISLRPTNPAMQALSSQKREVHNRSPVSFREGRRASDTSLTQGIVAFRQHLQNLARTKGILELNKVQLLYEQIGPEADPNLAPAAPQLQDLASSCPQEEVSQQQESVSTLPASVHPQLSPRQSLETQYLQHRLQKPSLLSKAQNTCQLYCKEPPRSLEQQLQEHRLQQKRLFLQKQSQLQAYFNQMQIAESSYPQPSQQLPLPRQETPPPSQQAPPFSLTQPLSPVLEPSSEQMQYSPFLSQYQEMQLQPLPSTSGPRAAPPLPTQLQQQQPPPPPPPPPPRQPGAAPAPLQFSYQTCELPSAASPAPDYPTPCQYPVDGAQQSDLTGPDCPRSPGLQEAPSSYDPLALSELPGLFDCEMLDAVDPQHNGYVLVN

Consider `c1cc2cc(c1)-c1cnn3ccc(nc13)OCCCNCCO2` [Compound H87], for which, on SIK2 recombinant protein, the remaining activity (usually the signal under treatment as a percentage of the control signal) at 0.1 µM is above 50%; the remaining activity at 1 µM was below 50%; the IC50 (as a rule, the concentration at which inhibition is half-maximal) was below 100 nM.
On to `COCc1cc2cc(c1)-c1cnn3ccc(nc13)NCCN(C(=O)C1CC1)CCO2` [Compound H79], for which the melting point (usually the temperature, or range, at which the solid turns liquid) is above 300 °C. The IC50 on SIK2 recombinant protein was below 100 nM.
For the molecule `CNCCN1CCOc2cccc(c2)-c2cnn3ccc(nc23)OCC1` [Compound H86], at SIK2 recombinant protein, the remaining activity at 0.1 µM was below 50%, the remaining activity at 1 µM is below 50% and the IC50 is below 100 nM.
As for `CNCCN1CCOc2cccc(c2)-c2cnn3ccc(nc23)OCC1` (as salt: HCl) [Compound H86], the melting point was determined as 247 °C.
Regarding `OCc1cc2cc(c1)-c1cnn3ccc(nc13)NCCCNCCO2` [Compound H96], at SIK2 recombinant protein, the remaining activity at 0.1 µM was below 50%, the remaining activity at 1 µM was below 50% and the IC50 was below 100 nM.
Molecule `c1cc2cc(c1)-c1cnc3ccc(nn13)SCCNCCCO2` [Compound H99] showed a melting point of 125.6 °C. Also, the IC50 at SIK2 recombinant protein fell in the range of 100 to 1000 nM.
With `CCN1CCCNc2ccn3ncc(c3n2)-c2cc(C)cc(c2)OCC1` [Compound H95], on SIK2 recombinant protein, the remaining activity at 0.1 µM was below 50%, the remaining activity at 1 µM is below 50% and the IC50 was below 100 nM.
`Cc1cc2cc(c1)-c1cnn3ccc(nc13)NCCCNCCO2` [Compound H92] returned a melting point above 300 °C. Moreover, at SIK2 recombinant protein, the remaining activity at 0.1 µM was below 50%, the remaining activity at 1 µM is below 50% and the IC50 was below 100 nM.
For `Cc1cc2cc(c1)-c1cnn3ccc(nc13)NCCCN(C)CCO2` [Compound H93], on SIK2 recombinant protein, the remaining activity at 0.1 µM was below 50%, the remaining activity at 1 µM is below 50% and the IC50 is below 100 nM.
In turn, `CN1CCCOc2cccc(c2)-c2cnn3ccc(nc23)NCC1` [Compound H94] gave a melting point of 288 °C. Also, on SIK2 recombinant protein, the IC50 was below 100 nM.
Regarding `OCc1cc2cc(c1)-c1cnn3ccc(nc13)NCCN(CC1CC1)CCO2` [Compound H81], the melting point was 179.1 °C. At SIK2 recombinant protein, the remaining activity at 0.1 µM is below 50%, the remaining activity at 1 µM was below 50% and the half-inhibitory concentration (IC50) is below 100 nM.
Take `CN(C)CCNC(=O)N1CCNCCOc2cccc(c2)-c2cnn3ccc1nc23` [Compound A11]: the melting point is above 300 °C. On SIK2 recombinant protein, the remaining activity at 0.1 µM is below 50%, the remaining activity at 1 µM was below 50% and the IC50 is below 100 nM.
Regarding `CN1CCCNc2ccn3ncc(c3n2)-c2cc(cc(C(F)(F)F)c2)OCC1` [Compound H91], at SIK2 recombinant protein, the remaining activity at 0.1 µM is below 50%, the remaining activity at 1 µM is below 50% and the IC50 was below 100 nM.
Consider `OCc1cc2cc(c1)-c1cnn3ccc(nc13)NCCNCCO2` [Compound H80], for which the IC50 at SIK2 recombinant protein was below 100 nM.
In the case of `c1cc2cc(c1)-c1cnn3ccc(nc13)SCCNCCCO2` [Compound H98], the melting point was determined as 178.1 °C. Also, on SIK2 recombinant protein, the remaining activity at 0.1 µM was below 50%, the remaining activity at 1 µM was below 50% and the IC50 lay in the range of 100 to 1000 nM.
As for `OCc1cc2cc(c1)-c1cnn3ccc(nc13)NCCCNCCN2` [Compound H100], at SIK2 recombinant protein, the remaining activity at 0.1 µM is below 50%, the remaining activity at 1 µM was below 50% and the IC50 was below 100 nM.
Take `c1cc2cc(c1)-c1cnn3ccc(nc13)NCCCNCCCO2` [Compound H88]: on SIK2 recombinant protein, the remaining activity at 0.1 µM is below 50%, the remaining activity at 1 µM is below 50% and the IC50 was below 100 nM.
In the case of `OCCN1CCNc2ccn3ncc(c3n2)-c2cc(Cl)cc(c2)OCC1` [Compound H97], the melting point came to 285.2 °C. At SIK2 recombinant protein, the remaining activity at 0.1 µM is below 50%, the remaining activity at 1 µM was below 50% and the IC50 is below 100 nM.
`c1cc2cc(c1)-c1cnc3ccc(nn13)SCCNCCCN2` [Compound H85] displayed a melting point of 173.1 °C. At SIK2 recombinant protein, the remaining activity at 0.1 µM was below 50%, the remaining activity at 1 µM was below 50% and the IC50 is below 100 nM.
`NCCN1CCNc2ccn3ncc(c3n2)-c2cccc(c2)OCC1` [Compound H84] registered a melting point above 300 °C. Further, on SIK2 recombinant protein, the remaining activity at 0.1 µM was below 50%, the remaining activity at 1 µM was below 50% and the IC50 was below 100 nM.
Turning to `c1cc2cc(c1)-c1cnn3ccc(nc13)OCCCNCCCN2` [Compound H89], on SIK2 recombinant protein, the remaining activity at 0.1 µM was above 50%, the remaining activity at 1 µM was below 50% and the IC50 is below 100 nM.
Consider `c1cc2cc(c1)-c1cnn3ccc(nc13)OCCCNCCCN2` (as salt: HCl) [Compound H89], for which the melting point amounted to 273.3 °C.
With `Cc1ccc2cc1OCCNCCNc1ccn3ncc-2c3n1` [Compound H82], the melting point was above 300 °C. On SIK2 recombinant protein, the remaining activity at 0.1 µM was below 50%, the remaining activity at 1 µM is below 50% and the IC50 was below 100 nM.
Take `FC(F)(F)c1cc2cc(c1)-c1cnn3ccc(nc13)NCCCNCCO2` [Compound H90]: the melting point was above 300 °C. Also, at SIK2 recombinant protein, the remaining activity at 0.1 µM is below 50%, the remaining activity at 1 µM is below 50% and the IC50 is below 100 nM.
Take `O=C(C1CC1)N1CCNc2ccn3ncc(c3n2)-c2cc(CO)cc(c2)OCC1` [Compound B75]: at SIK2 recombinant protein, the remaining activity at 0.1 µM is below 50% and the remaining activity at 1 µM is below 50%.
In turn, `Fc1cc2cc(c1)-c1cnn3ccc(nc13)NCCN(C1CCNCC1)CCO2` [Compound H83] came in with a melting point of 246.2 °C. Further, at SIK2 recombinant protein, the remaining activity at 0.1 µM is below 50%, the remaining activity at 1 µM was below 50% and the IC50 is below 100 nM.
With `COCc1cc2cc(c1)-c1cnn3ccc(nc13)NCCNCCO2` [Compound H78], on SIK2 recombinant protein, the remaining activity at 0.1 µM was below 50%, the remaining activity at 1 µM is below 50% and the IC50 is below 100 nM.

Values taken from patent US9586975B2, “Macrocyclic salt-inducible kinase inhibitors” (ONCODESIGN S.A., priority 2013, dated 2017).
